The values below come from patent publication EP4691482A1, “LONG-ACTING CALCITONIN ANALOG” (Chengdu Aoda Biotechnology Co., Ltd., priority 2023, dated 2024).

The term half-life denotes the time needed for the level to fall by half in the phase considered. A low value points to fast loss.

The target in data set [1] is T1, calcitonin receptors (CTR) (Homo sapiens, UniProt P30988).
T1 construct: expressed in transfected cells; host or cells: cAMP Hunter HEK293-CT-R Gs cell line (HEK293, stably transfected)
T1 sequence (P30988 25-474): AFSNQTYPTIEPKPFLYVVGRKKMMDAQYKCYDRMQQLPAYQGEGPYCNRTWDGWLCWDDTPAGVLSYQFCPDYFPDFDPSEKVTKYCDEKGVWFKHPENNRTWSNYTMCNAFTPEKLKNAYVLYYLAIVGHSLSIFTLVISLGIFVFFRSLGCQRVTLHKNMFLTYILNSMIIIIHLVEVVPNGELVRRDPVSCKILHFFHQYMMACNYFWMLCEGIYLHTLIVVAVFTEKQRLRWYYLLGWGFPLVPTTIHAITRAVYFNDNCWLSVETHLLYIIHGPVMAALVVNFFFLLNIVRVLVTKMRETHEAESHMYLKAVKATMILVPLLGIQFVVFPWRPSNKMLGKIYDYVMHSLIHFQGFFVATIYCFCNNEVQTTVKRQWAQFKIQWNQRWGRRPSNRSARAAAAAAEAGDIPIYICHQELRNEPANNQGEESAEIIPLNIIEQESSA
Kind of data set: cAMP determination (HTRF, cAMP Dynamic 2 Kit) in cAMP Hunter HEK293-CT-R Gs cell line. The data set is classed as cell-based. The conditions noted are these: relative to Salmon Calcitonin = 100.0; HEK293 CT-R cAMP. For orientation: TR-FRET usually uses a lanthanide donor and a delayed reading to cut background.

A short description of data set [2]: in vivo. Details: species or system Macaca fascicularis. The conditions noted are these: cynomolgus monkey, sc, 0.1 mg/kg. As for the experimental part:
Macaca fascicularis were used as experimental animals. A subcutaneous administration was performed at a dose of 0.1 mg/kg. Venous blood samples were collected before administration (0 h) and at 1 h, 2 h, 3 h, 4 h, 8 h, 12 h, 18 h, 24 h, 48 h, 96 h, 144 h, and 168 h post-administration. Plasma samples were separated by centrifugation. The plasma concentration of the compound in the plasma samples was determined using liquid chromatography-mass spectrometry.

On to `CC(C)C[C@H](NC(=O)[C@H](CCCCN)NC(=O)CNC(=O)[C@H](CC(C)C)NC(=O)[C@@H](NC(=O)[C@@H]1CSSC[C@H](N)C(=O)N[C@@H](CO)C(=O)N[C@@H](CC(N)=O)C(=O)N[C@@H](CC(C)C)C(=O)N[C@@H](CO)C(=O)N[C@@H]([C@@H](C)O)C(=O)N1)C(C)C)C(=O)N[C@@H](CO)C(=O)N[C@@H](CCC(N)=O)C(=O)N[C@@H](CCC(=O)O)C(=O)N[C@@H](CC(C)C)C(=O)N[C@@H](Cc1c[nH]cn1)C(=O)N[C@@H](CCCCNC(=O)COCCOCCOCCOCCOCCNC(=O)CC[C@H](NC(=O)CCCCCCCCCCCCCCCCCCC(=O)O)C(=O)O)C(=O)N[C@@H](CC(C)C)C(=O)N[C@@H](CCC(N)=O)C(=O)N[C@H](C(=O)N[C@@H](Cc1ccc(O)cc1)C(=O)N1CCC[C@H]1C(=O)N[C@@H](CCCNC(=N)N)C(=O)N[C@H](C(=O)N[C@@H](CC(N)=O)C(=O)N[C@H](C(=O)NCC(=O)N[C@@H](CO)C(=O)NCC(=O)N[C@H](C(=O)N1CCC[C@H]1C(N)=O)[C@@H](C)O)[C@@H](C)O)[C@@H](C)O)[C@@H](C)O` [Compound 5, Cys-Ser-Asn-Leu-Ser-Thr-Cys-Val-Leu-Gly-Lys-Leu-Ser-Gln-Glu-Leu-His-Lys(PEG5CH2CO-γGlu-eicosanedioic acid)-Leu-Gln-Thr-Tyr-Pro-Arg-Thr-Asn-Thr-Gly-Ser-Gly-Thr-Pro-NH2], for which the “Relative Activity%” value in data set [1] turned out to be 339.3%. This compound had a half-life in data set [2] of 53.6 h.
